Laboratory results reported in patent US8357694B2, “Substituted 5,6-dihydro-6-phenylbenzo[F]isoquinolin-2-amine compounds” (ArQule, Inc., priority 2008, dated 2013).
Counter-ions that a name gives are not always drawn.

Compound `CCCCN(C)CCc1ccc(Nc2ncc3c(n2)-c2ccccc2[C@H](c2ccc(F)c(F)c2)C3)cc1` (as salt: hydrochloride) [Example 96, (S)—N-(4-(2-(butyl(methyl)amino)ethyl)phenyl)-6-(3,4-difluorophenyl)-5,6-dihydrobenzo[h]quinazolin-2-amine hydrochloride salt] has a melting point of 145 to 150 °C.
With `OCCc1ccc(Nc2ncc3c(n2)-c2ccccc2C(c2ccc(Cl)c(Cl)c2)C3)cc1` (stereo not drawn) the melting point was 94 to 96 °C.
`COCCN1CCN(Cc2cccc(Nc3ncc4c(n3)-c3ccccc3[C@H](c3ccccc3F)C4)c2)CC1` (as salt: hydrochloride) [Example 179, (R)-6-(2-fluorophenyl)-N-(3-((4-(2-methoxyethyl)piperazin-1-yl)methyl)phenyl)-5,6-dihydrobenzo[h]quinazolin-2-amine hydrochloride] gave a melting point of 173 to 178 °C.
Work on `CN1CCN(CCc2ccc(Nc3ncc4c(n3)-c3ccccc3C(c3cccc(Br)c3)C4)cc2)CC1` (stereo not drawn) [Example 28, 6-(3-bromophenyl)-N-(4-(2-(4-methylpiperazin-1-yl)ethyl)phenyl)-5,6-dihydrobenzo[h]quinazolin-2-amine] yielded a melting point of 100 to 102 °C.
Compound `CCCCN(C)CCc1ccc(Nc2ncc3c(n2)-c2ccccc2[C@H](c2ccc(Cl)cc2)C3)cc1` (as salt: hydrochloride) has a melting point of 75 to 77 °C.
Compound `CN(CCc1ccc(Nc2ncc3c(n2)-c2ccccc2[C@H](c2ccc(F)cc2)C3)cc1)C1CCCCC1` [Example 102, (S)—N-(4-(2-(cyclohexyl(methyl)amino)ethyl)phenyl)-6-(4-fluorophenyl)-5,6-dihydrobenzo[h]quinazolin-2-amine] has a melting point of 160 to 162 °C.
In the case of `CCCCN(C)CCc1cccc(Nc2ncc3c(n2)-c2ccccc2[C@H](c2ccc(Cl)c(Cl)c2)C3)c1` (as salt: hydrochloride) [Example 168, (S)—N-(3-(2-(butyl(methyl)amino)ethyl)phenyl)-6-(3,4-dichlorophenyl)-5,6-dihydrobenzo[h]quinazolin-2-amine hydrochloride], the melting point is reported as 162 to 166 °C.
For `CCCCN(C)CCc1ccc(Nc2ncc3c(n2)-c2ccccc2C(c2cccc(Br)c2)C3)cc1` (stereo not drawn) [Example 26, 6-(3-bromophenyl)-N-(4-(2-(butyl(methyl)amino)ethyl)phenyl)-5,6-dihydrobenzo[h]quinazolin-2-amine], the melting point was 66 to 68 °C.
`CN(CCc1ccccc1)CCc1cccc(Nc2ncc3c(n2)-c2ccccc2[C@H](c2ccc(Cl)c(Cl)c2)C3)c1` (as salt: hydrochloride) showed a melting point of 154 to 157 °C.
For `CN(C)CCCNc1ncc2c(n1)-c1ccccc1[C@H](c1ccc(Cl)c(Cl)c1)C2` [Example 13, (S)—N^1-(6-(3,4-dichlorophenyl)-5,6-dihydrobenzo[h]quinazolin-2-yl)-N^3,N^3-dimethylpropane-1,3-diamine], the melting point was 59 to 62 °C.
Work on `CN(CCc1ccccc1)CCc1ccc(Nc2ncc3c(n2)-c2ccccc2C(c2cccc(Br)c2)C3)cc1` (stereo not drawn) [Example 37, 6-(3-bromophenyl)-N-(4-(2-(methyl(phenethyl)amino)ethyl)phenyl)-5,6-dihydrobenzo[h]quinazolin-2-amine] yielded a melting point of 80 to 82 °C.
In the case of `COCCNCCc1ccc(Nc2ncc3c(n2)-c2ccccc2[C@H](c2ccccc2F)C3)cc1` (as salt: hydrochloride) [Example 94, (R)-6-(2-fluorophenyl)-N-(4-(2-(2-methoxyethylamino)ethyl)phenyl)-5,6-dihydrobenzo[h]quinazolin-2-amine hydrochloride salt], the melting point is reported as 198 to 201 °C.
In the case of `N#Cc1c(N)ncc2c1-c1ccccc1C(c1ccc(Cl)cc1Cl)C2` (stereo not drawn) [Example 151, 2-amino-6-(2,4-dichlorophenyl)-5,6-dihydrobenzo[f]isoquinoline-1-carbonitrile], the melting point is reported as 282 to 284 °C.
With `COCCN1CCN(CCc2ccc(Nc3ncc4c(n3)-c3ccccc3C(c3ccc(Cl)c(Cl)c3)C4)cc2)CC1` (stereo not drawn) [Example 33, 6-(3,4-dichlorophenyl)-N-(4-(2-(4-(2-methoxyethyl)piperazin-1-yl)ethyl)phenyl)-5,6-dihydrobenzo[h]quinazolin-2-amine] the melting point was 121 to 122 °C.
`OCCc1ccc(Nc2ncc3c(n2)-c2ccccc2C(c2ccc(F)c(F)c2)C3)cc1` (stereo not drawn) [Example 23, 2-(4-(6-(3,4-difluorophenyl)-5,6-dihydrobenzo[h]quinazolin-2-ylamino)phenyl)ethanol] gave a melting point of 170 to 172 °C.
Work on `Clc1ccc([C@H]2Cc3cnc(Nc4ccc(CCN5CCCCC5)cc4)nc3-c3ccccc32)cc1Cl` yielded a melting point of 157 to 158 °C.
`Clc1ccc(C2Cc3cnc(Nc4ccc(CCN5CCCCC5)cc4)nc3-c3ccccc32)cc1` (stereo not drawn) (as salt: hydrochloride) [Example 53, 6-(4-chlorophenyl)-N-(4-(2-(piperidin-1-yl)ethyl)phenyl)-5,6 dihydrobenzo[h]quinazolin-2-amine] showed a melting point of 170 to 175 °C.
In the case of `CCCCNCCc1cc(Nc2ncc3c(n2)-c2ccccc2[C@H](c2ccccc2F)C3)ccc1F` (as salt: hydrochloride) [Example 171, (R)—N-(3-(2-(butylamino)ethyl)-4-fluorophenyl)-6-(2-fluorophenyl)-5,6-dihydrobenzo[h]quinazolin-2-amine hydrochloride salt], the melting point is reported as 180 to 185 °C.
Compound `COCCN1CCN(CCc2ccc(Nc3ncc4c(n3)-c3ccccc3[C@H](c3ccc(Cl)c(Cl)c3)C4)cc2)CC1` (as salt: hydrochloride) [Example 115, (S)-6-(3,4-dichlorophenyl)-N-(4-(2-(4-(2-methoxyethyl)piperazin-1-yl)ethyl)phenyl)-5,6-dihydrobenzo[h]quinazolin-2-amine hydrochloride] has a melting point of 248 to 250 °C.
Work on `Fc1ccc([C@@H]2Cc3cnc(Nc4ccc(CCN5CCOCC5)cc4)nc3-c3ccccc32)cc1F` (as salt: hydrochloride) [Example 92, (S)-6-(3,4-difluorophenyl)-N-(4-(2-morpholinoethyl)phenyl)-5,6-dihydrobenzo[h]quinazolin-2-amine hydrochloride] yielded a melting point of 97 to 99 °C.
Work on `CCCCN(C)CCc1ccc(Nc2ncc3c(n2)-c2ccccc2[C@H](c2ccc(Br)cc2)C3)cc1` (as salt: hydrochloride) [Example 98, (S)-6-(4-bromophenyl)-N-(4-(2-(butyl(methyl)amino)ethyl)phenyl)-5,6-dihydrobenzo[h]quinazolin-2-amine hydrochloride salt] yielded a melting point of 170 to 175 °C.
Work on `COCCN1CCN(CCc2ccc(Nc3ncc4c(n3)-c3ccccc3[C@H](c3cccc(Br)c3)C4)cc2)CC1` (as salt: hydrochloride) [Example 77, (S)-6-(3-bromophenyl)-N-(4-(2-(4-(2-methoxyethyl)piperazin-1-yl)ethyl)phenyl)-5,6-dihydrobenzo[h]quinazolin-2-amine hydrochloride] yielded a melting point of 263 to 265 °C.
`NCCc1ccc(Nc2ncc3c(n2)-c2ccccc2C(c2cccc(Br)c2)C3)cc1` (stereo not drawn) [Example 34, N-(4-(2-aminoethyl)phenyl)-6-(3-bromophenyl)-5,6-dihydrobenzo[h]quinazolin-2-amine] gave a melting point of 115 to 117 °C.
`OCCc1ccc(Nc2ncc3c(n2)-c2ccccc2C(c2cccc(Br)c2)C3)cc1` (stereo not drawn) [Example 7, 2-(4-(6-(3-bromophenyl)-5,6-dihydrobenzo[h]quinazolin-2-ylamino)phenyl)ethanol] gave a melting point of 88 to 90 °C.
`CN(CCc1ccccc1)CCc1ccc(Nc2ncc3c(n2)-c2ccccc2[C@H](c2ccccc2F)C3)cc1` (as salt: hydrochloride) [Example 93, (R)-6-(2-fluorophenyl)-N-(4-(2-(methyl(phenethyl)amino)ethyl)phenyl)-5,6-dihydrobenzo[h]quinazolin-2-amine hydrochloride salt] showed a melting point of 135 to 145 °C.
With `OCCc1ccccc1Nc1ncc2c(n1)-c1ccccc1[C@H](c1ccccc1F)C2` [Example 177, (R)-2-(2-(6-(2-fluorophenyl)-5,6-dihydrobenzo[h]quinazolin-2-ylamino)phenyl)ethanol] the melting point was 162 to 163 °C.
`COCCNCc1cccc(Nc2ncc3c(n2)-c2ccccc2[C@H](c2ccccc2F)C3)c1` (as salt: hydrochloride) [Example 178, (R)-6-(2-fluorophenyl)-N-(3-((2-methoxyethylamino)methyl)phenyl)-5,6-dihydrobenzo[h]quinazolin-2-amine hydrochloride] showed a melting point of 158 to 163 °C.
`CCCCN(C)CCc1ccc(Nc2ncc3c(n2)-c2ccccc2[C@@H](c2ccc(Br)cc2)C3)cc1` (as salt: hydrochloride) [Example 107, (R)-6-(4-bromophenyl)-N-(4-(2-(butyl(methyl)amino)ethyl)phenyl)-5,6-dihydrobenzo[h]quinazolin-2-amine hydrochloride salt] gave a melting point of 140 to 145 °C.
For `Fc1ccc([C@@H]2Cc3cnc(Nc4ccc(CCN5CCCCC5)cc4)nc3-c3ccccc32)cc1F` (as salt: hydrochloride) [Example 84, (S)-6-(3,4-difluorophenyl)-N-(4-(2-(piperidin-1-yl)ethyl)phenyl)-5,6-dihydrobenzo[h]quinazolin-2-amine hydrochloride], the melting point was 163 to 165 °C.
Work on `CN1CCN(CCc2ccc(Nc3ncc4c(n3)-c3ccccc3[C@H](c3ccc(Cl)c(Cl)c3)C4)cc2)CC1` (as salt: hydrochloride) [Example 114, (S)-6-(3,4-dichlorophenyl)-N-(4-(2-(4-methylpiperazin-1-yl)ethyl)phenyl)-5,6-dihydrobenzo[h]quinazolin-2-amine hydrochloride] yielded a melting point of 236 to 238 °C.
With `CN(CCc1ccccc1)CCc1ccc(Nc2ncc3c(n2)-c2ccccc2[C@H](c2cccc(Br)c2)C3)cc1` (as salt: HCl) [Example 81, (S)-6-(3-bromophenyl)-N-(4-(2-(methyl(phenethyl)amino)ethyl)phenyl)-5,6-dihydrobenzo[h]quinazolin-2-amine] the melting point was 146 to 153 °C.
Compound `CS(=O)(=O)OCCc1cc(Nc2ncc3c(n2)-c2ccccc2[C@H](c2ccccc2F)C3)ccc1F` [Example 170, (R)-2-fluoro-5-(6-(2-fluorophenyl)-5,6-dihydrobenzo[h]quinazolin-2-ylamino)phenethyl methanesulfonate] has a melting point of 99 to 100 °C.
In the case of `CCN(CCc1ccc(Nc2ncc3c(n2)-c2ccccc2C(c2cccc(Br)c2)C3)cc1)C(C)C` (stereo not drawn) [Example 40, 6-(3-bromophenyl)-N-(4-(2-(ethyl(isopropyl)amino)ethyl)phenyl)-5,6-dihydrobenzo[h]quinazolin-2-amine], the melting point is reported as 67 to 69 °C.
